The source of these data is patent publication US8138168B1 (Takeda Pharmaceutical Company Limited, priority 2007, dated 2012).

The experiment deals with T1, Recombinant human renin (Homo sapiens, UniProt P00797).
T1 construct: isolate the active form (residues 67-406); made in house; host or cells: FreeStyle 293-F cells (transient expression of pcDNA3.1(+)/hREN)
T1 sequence (P00797 67-406): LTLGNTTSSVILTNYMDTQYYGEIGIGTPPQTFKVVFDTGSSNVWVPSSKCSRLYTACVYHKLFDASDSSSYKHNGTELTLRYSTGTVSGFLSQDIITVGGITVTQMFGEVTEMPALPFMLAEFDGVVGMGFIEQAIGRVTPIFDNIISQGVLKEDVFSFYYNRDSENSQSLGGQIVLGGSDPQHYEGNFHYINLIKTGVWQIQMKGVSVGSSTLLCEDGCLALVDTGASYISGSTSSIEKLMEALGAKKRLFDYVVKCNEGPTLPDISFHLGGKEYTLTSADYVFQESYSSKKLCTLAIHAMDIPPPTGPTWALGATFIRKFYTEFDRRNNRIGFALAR
In words: In vitro enzymatic activity assay of renin inhibitors (fluorogenic peptide substrate). Format: biochemical. The following applies: read-out: IC50 of Exemplified Compounds Against Renin. The method, boiled down: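 Recombinant human renin (3 nM final) pre-incubated 10 min at 37 °C with compounds in pH 7.4 Hepes/EDTA/DTT/0.1 mg/mL BSA/Brij35 buffer (optionally plus 2% BSA), 5% DMSO final; fluorogenic QXL520/HiLyteFluo488 peptide substrate added.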
By IC50 is commonly meant the concentration at which inhibition is half-maximal. On to `COCCCn1c([C@@H]2CCCN(C(=O)C[C@H](N)Cc3ccc(-c4ccn[nH]4)cc3)C2)nc2ccccc21` [Compound 141, (R)-4-(4-(1H-pyrazol-5-yl)phenyl)-3-amino-1-((R)-3-(1-(3-methoxypropyl)-1H-benzo[d]imidazol-2-yl)piperidin-1-yl)butan-1-one], for which the IC50 was 100 to 1000 nM.

As to `COCCCn1c([C@@H]2CCCN(C(=O)C[C@H](N)Cc3ccc(-c4ccc(OC(C)C)nc4)cc3)C2)nc2ccccc21` [Compound 142, (R)-3-amino-4-(4-(6-isopropoxypyridin-3-yl)phenyl)-1-((R)-3-(1-(3-methoxypropyl)-1H-benzo[d]imidazol-2-yl)piperidin-1-yl)butan-1-one], the IC50 is less than 100 nM.

With `COCCCn1c([C@@H]2CCCN(C(=O)C[C@H](N)Cc3ccc(-c4ccc(OCC5CC5)nc4)cc3)C2)nc2ccccc21` [Compound 143, (R)-3-amino-4-(4-(6-(cyclopropylmethoxy)pyridin-3-yl)phenyl)-1-((R)-3-(1-(3-methoxypropyl)-1H-benzo[d]imidazol-2-yl)piperidin-1-yl)butan-1-one], the half-maximal inhibitory concentration (IC50) is less than 100 nM. Turning to `COCCCn1c([C@@H]2CCCN(C(=O)C[C@H](N)Cc3ccc(-c4ccncc4OC)cc3)C2)nc2ccccc21` [Compound 144, (R)-3-amino-1-((R)-3-(1-(3-methoxypropyl)-1H-benzo[d]imidazol-2-yl)piperidin-1-yl)-4-(4-(3-methoxypyridin-4-yl)phenyl)butan-1-one], the IC50 was less than 100 nM.

For the compound `COCCCn1c([C@@H]2CCCN(C(=O)C[C@H](N)Cc3ccc(-c4ccoc4)cc3)C2)nc2ccccc21` [Compound 145, (R)-3-amino-4-(4-(furan-3-yl)phenyl)-1-((R)-3-(1-(3-methoxypropyl)-1H-benzo[d]imidazol-2-yl)piperidin-1-yl)butan-1-one], the IC50 was less than 100 nM. For the compound `COCCCn1c([C@@H]2CCCN(C(=O)C[C@H](N)Cc3ccc(-c4ccco4)cc3)C2)nc2ccccc21` [Compound 146, (R)-3-Amino-4-(4-(furan-2-yl)phenyl)-1-((R)-3-(1-(3-methoxypropyl)-1H-benzo[d]imidazol-2-yl)piperidin-1-yl)butan-1-one], the IC50 was less than 100 nM.

Regarding `COCCCn1c([C@@H]2CCCN(C(=O)C[C@H](N)Cc3ccc(-c4ccc(N(C)C)nc4)cc3)C2)nc2ccccc21` [Compound 147, (R)-3-amino-4-(4-(6-(dimethylamino)pyridin-3-yl)phenyl)-1-((R)-3-(1-(3-methoxypropyl)-1H-benzo[d]imidazol-2-yl)piperidin-1-yl)butan-1-one], the IC50 is less than 100 nM.

With `COCCCn1c([C@@H]2CCCN(C(=O)C[C@H](N)Cc3ccc(-c4cncnc4)cc3)C2)nc2ccccc21` [Compound 149, (R)-3-Amino-1-((R)-3-(1-(3-methoxypropyl)-1H-benzo[d]imidazol-2-yl)piperidin-1-yl)-4-(4-(pyrimidin-5-yl)phenyl)butan-1-one], the IC50 is less than 100 nM. In the case of `COCCCn1c([C@@H]2CCCN(C(=O)C[C@H](N)Cc3ccc(-c4ccnc(F)c4)cc3)C2)nc2ccccc21` [Compound 150, (R)-3-amino-4-(4-(2-fluoropyridin-4-yl)phenyl)-1-((R)-3-(1-(3-methoxypropyl)-1H-benzo[d]imidazol-2-yl)piperidin-1-yl)butan-1-one], the IC50 is less than 100 nM. For the compound `COCCCn1c([C@@H]2CCCN(C(=O)C[C@H](N)Cc3ccc(-c4cccnc4F)cc3)C2)nc2ccccc21` [Compound 151, (R)-3-amino-4-(4-(2-fluoropyridin-3-yl)phenyl)-1-((R)-3-(1-(3-methoxypropyl)-1H-benzo[d]imidazol-2-yl)piperidin-1-yl)butan-1-one], the IC50 is less than 100 nM. Take `COCCCn1c([C@@H]2CCCN(C(=O)C[C@H](N)Cc3ccc(-c4cc[nH]c4)cc3)C2)nc2ccccc21` [Compound 152, (R)-4-(4-(1H-pyrrol-3-yl)phenyl)-3-amino-1-((R)-3-(1-(3-methoxypropyl)-1H-benzo[d]imidazol-2-yl)piperidin-1-yl)butan-1-one]: the IC50 is less than 100 nM.

Consider `COCCCn1c([C@@H]2CCCN(C(=O)C[C@H](N)Cc3ccc(-c4ccc[nH]4)cc3)C2)nc2ccccc21` [Compound 153, (R)-4-(4-(1H-pyrrol-2-yl)phenyl)-3-amino-1-((R)-3-(1-(3-methoxypropyl)-1H-benzo[d]imidazol-2-yl)piperidin-1-yl)butan-1-one], for which the IC50 is less than 100 nM. Consider `COCCCn1c([C@@H]2CCCN(C(=O)C[C@H](N)Cc3ccc(-c4cnc(N)nc4)cc3)C2)nc2ccccc21` [Compound 154, (R)-3-amino-4-(4-(2-aminopyrimidin-5-yl)phenyl)-1-((R)-3-(1-(3-methoxypropyl)-1H-benzo[d]imidazol-2-yl)piperidin-1-yl)butan-1-one], for which the IC50 was less than 100 nM. With `COCCCn1c([C@@H]2CCCN(C(=O)C[C@H](N)Cc3ccc(-c4ccccc4Cl)cc3)C2)nc2ccccc21` [Compound 155, (R)-3-amino-4-(2′-chlorobiphenyl-4-yl)-1-((R)-3-(1-(3-methoxypropyl)-1H-benzo[d]imidazol-2-yl)piperidin-1-yl)butan-1-one], the IC50 was less than 100 nM. Regarding `COCCCn1c([C@@H]2CCCN(C(=O)C[C@H](N)Cc3ccc(-c4ccc(OC)cc4)cc3)C2)nc2ccccc21` [Compound 156, (R)-3-amino-4-(4′-methoxybiphenyl-4-yl)-1((R)-3-(1-(3-methoxypropyl)-1H-benzo[d]imidazol-2-yl)piperidin-1-yl)butan-1-one], the IC50 was less than 100 nM. As to `COCCCn1c([C@@H]2CCCN(C(=O)C[C@H](N)Cc3ccc(-c4ccccc4C)cc3)C2)nc2ccccc21` [Compound 157, (R)-3-amino-1-((R)-3-(1-(3-methoxypropyl)-1H-benzo[d]imidazol-2-yl)piperidin-1-yl)-4-(2′-methylbiphenyl-4-yl)butan-1-one], the concentration for half-maximal inhibition (IC50) was less than 100 nM.

As for `COCCCn1c([C@@H]2CCCN(C(=O)C[C@H](N)Cc3ccc(-c4cccc(OC)c4)cc3)C2)nc2ccccc21` [Compound 158, (R)-3-Amino-4-(3′-methoxybiphenyl-4-yl)-1-((R)-3-(1-(3-methoxypropyl)-1H-benzo[d]imidazol-2-yl)piperidin-1-yl)butan-1-one], the IC50 was less than 100 nM.

In the case of `COCCCn1c([C@@H]2CCCN(C(=O)C[C@H](N)Cc3ccc(-c4ccccc4OC)cc3)C2)nc2ccccc21` [Compound 159], the IC50 is less than 100 nM. For the compound `COCCCn1c([C@@H]2CCCN(C(=O)C[C@H](N)Cc3ccc(-c4ccccc4F)cc3)C2)nc2ccccc21` [Compound 160, (R)-3-amino-4-(2′-fluorobiphenyl-4-yl)-1-((R)-3-(1-(3-methoxypropyl)-1H-benzo[d]imidazol-2-yl)piperidin-1-yl)butan-1-one], the IC50 is less than 100 nM. `COCCCn1c([C@@H]2CCCN(C(=O)C[C@H](N)Cc3ccc(-c4ccc(N(C)C)cc4)cc3)C2)nc2ccccc21` [Compound 161, (R)-3-amino-4-(4′-(dimethylamino)biphenyl-4-yl)-1-((R)-3-(1-(3-methoxypropyl)-1H-benzo[d]imidazol-2-yl)piperidin-1-yl)butan-1-one]: the IC50 was less than 100 nM. For `COCCCn1c([C@@H]2CCCN(C(=O)C[C@H](N)Cc3ccc(-c4cnccc4OC)cc3)C2)nc2ccccc21` [Compound 162, (R)-3-Amino-1-((R)-3-(1-(3-methoxypropyl)-1H-benzo[d]imidazol-2-yl)piperidin-1-yl)-4-(4-(4-methoxypyridin-3-yl)phenyl)butan-1-one], the IC50 was less than 100 nM.
